The values that follow come from patent publication US20130029942A1, “COMPOUNDS AND THERAPEUTICAL USES THEREOF” (Myrexis, Inc., priority 2003, published 2013).

The test deals with P388 murine leukemia cell line. Briefly: P388 cytotoxicity (ATP-Lite, 72 hours). The class given is cell-based. Particulars: Mus musculus, P388, 72 hours. On the procedure: A P388 murine leukemia cell line was obtained from NCI, Frederick, Md. P388 cells were cultured in RPMI-1640 supplemented with 10% fetal bovine serum, 2 mM Glutamax, 1 mM sodium pyruvate, 0.1 mM non-essential amino acids and 10 mM HEPES. Cells were grown at 37° C. in a humidified 5% CO2 atmosphere. Exponentially growing P388 cells were plated at 5,000 cells/well in a 96-well flat-bottomed microtiter plate (Corning, Costar #3595). […] Cellular viability was determined 72 hours later by measuring intracellular ATP with ATP-Lite assay system. The effect of compounds on cell viability was calculated by comparing the ATP levels of cells exposed to test compound with those of cells exposed to DMSO. […] Data was analyzed by Prism software (GraphPad; San Diego, Calif.) by fitting it to a sigmoidal dose response curve.

As a reminder, the IC50 is the concentration that inhibits the measured activity by half. The low end stands for higher potency, the high end for lower potency. On to `CC(C)Oc1ccc(N(C)c2nc(CN)nc3ccc(N)cc23)cc1` [Example 220, 2-Aminomethyl-N^4-(4-isopropoxy-phenyl)-N^4-methyl-quinazoline-4,6-diamine], for which 870 nM corresponded to half-maximal inhibition (IC50).

`COc1ccc(N(C)c2nc(NCCN)nc3ccc(OC)cc23)cc1` [Example 175, N^2-(2-Amino-ethyl)-6-methoxy-N^4-(4-methoxy-phenyl)-N^4-methyl-quinazoline-2,4-diamine] gave an IC50 of 5000 nM. For `COc1ccc(N(C)c2nc(CNC(=O)CCC(=O)O)nc3ccccc23)cc1` [Example 232, N-{4-[(4-Methoxy-phenyl)-methyl-amino]-quinazolin-2-ylmethyl}-succinamic acid] the value was 950 nM; for `CNCCCNc1nc(N(C)c2ccc(OC)cc2)c2ccccc2n1` [Example 228, N^4-(4-Methoxy-phenyl)-N^4-methyl-N^2-(3-methylamino-propyl)-quinazoline-2,4-diamine], 900 nM; for `COc1ccc(N(C)c2nc(CN)nc3ccc(-c4ccccc4)cc23)cc1` [Example 243, (2-Aminomethyl-6-phenyl-quinazolin-4-yl)-(4-methoxy-phenyl)-methyl-amine], 4200 nM.

`CCOc1ccc(N(C)c2nc(CN)nc3ccccc23)cc1F` [Example 235, (2-Aminomethyl-quinazolin-4-yl)-(4-ethoxy-3-fluoro-phenyl)-methyl-amine] returned an IC50 of 5 nM. Consider `CCOc1ccc(N(C)c2nc(CCl)nc3ccccc23)cc1Cl` [Example 258, (3-Chloro-4-ethoxy-phenyl)-(2-chloromethyl-quinazolin-4-yl)-methyl-amine], for which the midpoint of inhibition, the IC50, lay at 15 nM. Turning to `CCOc1ccc(N(C)c2nc(C)nc3ccc(Br)cc23)cc1F` [Example 246, (6-Bromo-2-methyl-quinazolin-4-yl)-(4-ethoxy-3-fluoro-phenyl)-methyl-amine], half-maximal inhibition (IC50) was put at 11 nM. The IC50 values of the last two molecules are within 1.5-fold of each other. Regarding `COc1ccc(N(C)c2nc(C)nc3ccc([N+](=O)[O-])cc23)c(F)c1` [Example 221, (2-Fluoro-4-methoxy-phenyl)-methyl-(2-methyl-6-nitro-quinazolin-4-yl)-amine], 58 nM corresponded to half-maximal inhibition (IC50).

`COc1ccc(N(C)c2nc(CN3CCCCC3=O)nc3ccccc23)cc1` [Example 252, 1-{4-[(4-Methoxy-phenyl)-methyl-amino]-quinazolin-2-ylmethyl}-piperidin-2-one] showed an IC50 of 1000 nM. Compared with the last molecule, the IC50 is about 17-fold higher.

As to `COc1ccc(N(C)c2nc(C)nc3ccc(NS(=O)(=O)c4ccc(OC)cc4)cc23)cc1` [Example 236, 4-Methoxy-N-{4-[(4-methoxy-phenyl)-methyl-amino]-2-methyl-quinazolin-6-yl}-benzenesulfonamide], half-maximal inhibition (IC50) required 680 nM.

In turn, `COc1ccc(N(C)c2nc(CNC(=O)[C@@H](C)N)nc3ccccc23)cc1` [Example 248, (R)-2-Amino-N-{4-[(4-methoxy-phenyl)-methyl-amino]-quinazolin-2-ylmethyl}-propionamide] came in with an IC50 of 222 nM. This IC50 is about 3.1-fold lower than that of the molecule before. For `CCOc1ccc(N(C)c2nc(CN)nc3ccccc23)c(F)c1` [Example 237, (2-Aminomethyl-quinazolin-4-yl)-(4-ethoxy-2-fluoro-phenyl)-methyl-amine] the value was 15 nM; for `COc1ccc(N(C)c2nc(N(C)CCCN)nc3ccccc23)cc1` [Example 227, N^2-(3-Amino-propyl)-N^4-(4-methoxy-phenyl)-N^2,N^4-dimethyl-quinazoline-2,4-diamine], 27 nM; for `Cc1nc(N(C)c2ccc(OCC(=O)O)cc2)c2ccccc2n1` [Example 144, {4-[Methyl-(2-methyl-quinazolin-4-yl)-amino]phenoxy}-acetic acid], 1700 nM. For `CONc1nc(N(C)c2ccc(OC)cc2)c2ccccc2n1` [Example 172, N-{4-[(4-Methoxy-phenyl)-methyl-amino]-quinazolin-2-yl}-O-methyl-hydroxylamine] the value was 2 nM; for `COc1ccc(N(C)c2nc(NCCO)nc3ccc([N+](=O)[O-])cc23)cc1` [Example 186, 2-{4-[(4-Methoxy-phenyl)-methyl-amino]-6-nitro-quinazolin-2-ylamino}-ethanol], 1800 nM.
